Data from PMC10120310 (Cell Insight, 2022).
pEC50: −log10 of the molar value.

Experiments:
H1N1 virus = test: microbe, parasite or virus in culture; format: cell-based; details: Influenza A virus, H1N1, MDCK
influenza NA protein = influenza NA protein (Influenza A virus, UniProt P03470); format: cell-based, influenza virus (WSN)
in vitro = details: dog

influenza NA protein, sequence (P03470 whole entry, looked up): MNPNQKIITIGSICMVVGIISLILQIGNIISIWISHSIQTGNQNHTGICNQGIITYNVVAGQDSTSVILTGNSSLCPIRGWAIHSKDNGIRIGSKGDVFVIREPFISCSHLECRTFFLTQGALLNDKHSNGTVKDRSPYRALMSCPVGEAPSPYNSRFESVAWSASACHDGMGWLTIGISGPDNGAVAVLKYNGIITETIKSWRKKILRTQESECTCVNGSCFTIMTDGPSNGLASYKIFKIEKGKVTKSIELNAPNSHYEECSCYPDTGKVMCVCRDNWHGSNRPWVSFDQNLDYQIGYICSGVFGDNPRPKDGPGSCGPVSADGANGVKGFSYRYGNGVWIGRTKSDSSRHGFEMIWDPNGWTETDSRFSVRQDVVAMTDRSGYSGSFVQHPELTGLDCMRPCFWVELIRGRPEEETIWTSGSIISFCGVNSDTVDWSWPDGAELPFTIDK

SMILES: CCOC(=O)C1=C[C@@H](OC(CC)CC)[C@H](NC(C)=O)[C@@H](N)C1 [OSP, oseltamivir phosphate]
- pEC50 (H1N1 virus): 6.44
- NA protein degradation (influenza NA protein): no degradation activity
- CC50 (in vitro): > 50000 nM
